The results in this text go back to US4620871A (priority 1980, dated 1986).

The subject of one assay is Alfalfa. The experiment in a line: Inhibition of the decomposition of chlorophyll in alfalfa. To be noted: for Chlorophyll content: 200 ppm, 100 mg green plant, control 0.78; for activation at 200 ppm: Medicago sativa, 96 h, read-out: Promotion. As for the experimental part: (§1) Thereafter chlorphyll was extracted from the leaf segments with methanol. To determine the starting state, chlorophyll was extracted with methanol from untreated leaf segments weighing 200 mg. In the control test the leaf segments, weighing 200 mg, were floated on the surface of distilled water for 4 days in the dark, and then chlorophyll was extracted from the leaf segments with methanol. […] For alfalfa and maize the chlorphyll contents of 100 mg of green plant were examined.

For a further assay, the system named is Maize. Put plainly: Inhibition of the decomposition of chlorophyll in maize. To be noted: for Chlorophyll content: 100 mg green plant, control 0.65; for activation at 200 ppm: Zea mays, 96 h, read-out: Promotion. As for the experimental part: as §1
Assay [1] concerns Bean. The experiment in a line: Stimulation of photosynthesis, 14CO2 incorporation, bean leaf discs (Example 20). To be noted: 2 hours; for activation at 200 ppm: foliar. The protocol: The specific radioactivities of the stock solutions were determined by liquid scintillation. In the control test untreated leaf discs were exposed to labelled carbon, dioxide, and the amount of carbon dioxide incorporated under such conditions was regarded as standard.

The test system of a further assay is maize leaves. The experiment in a line: Fixation of 14CO2 in maize leaves (Example 36). To be noted: 18 hours; for Fixation of 14CO2: fresh weight, control 5.72; for Fixation of 14CO2, %: increase over control. The protocol: (§2) The biological activities of cytokinin-like factors can be well characterized by measuring the intensity of the photosynthetic carbon dioxide fixation and the incorporation of labelled amino acids into the TCA-insoluble protein fraction. The intensity of photosynthetic carbon dioxide fixation was determined on maize leaves, utilizing ^14 CO2, whereas the incorporation of amino acids was examined on bean leaves, utilizing […]-^14 C.

The next assay concerns bean leaves. The experiment in a line: Incorporation of Gly-2-14C in bean leaves (Example 36). To be noted: 18 hours; for Incorporation of Gly-2-14C: fresh weight, control 3.52; for Incorporation of Gly-2-14C, %: increase over control. The protocol: as §2
Assay [2] relates to Soybean. Put plainly: Inhibition of the decomposition of chlorophyll in soybean leaf segments. To be noted: 4 days dark. As for the experimental part: (§3) The active agent to be tested was dissolved in distilled water to form a 200 ppm solution, and leaf segments of the plants under examination, weighing 200 mg, were floated on the surface of the solution for 4 days in the dark. Thereafter chlorphyll was extracted from the leaf segments with methanol.
(§4) To determine the starting state, chlorophyll was extracted with methanol from untreated leaf segments weighing 200 mg. In the control test the leaf segments, weighing 200 mg, were floated on the surface of distilled water for 4 days in the dark, and then chlorophyll was extracted from the leaf segments with methanol.
(§5) The chlorophyll concentration was determined by measuring the extinction of the extracts at 665 mμ.

The test system of assay [3] is Bean. Put plainly: Inhibition of the decomposition of chlorophyll in bean leaf segments. To be noted: 4 days dark. As for the experimental part: as §3, §4, §5
The test system of another assay is soybean leaf segments. Put plainly: Stimulation of the protein level of soybean, glycine-14C incorporation (Example 18). To be noted: 24 hours. As for the experimental part: The active agent to be tested was dissolved in distilled water to form a 200 ppm solution, and soybean leaf segments, weighing 200 mg, were floated on the surface of the solution for 24 hours. In the control test leaf segments, weighing 200 mg, were floated on the surface of distilled water.
The leaf segments were washed with distilled water, and then treated for 3 hours with 20 ml of a solution containing labelled amino acid (glycine-^14 C; activity: 2 μCi). After this exposition period the leaf segments were washed with an aboundant amount of water, and the protein content of the leaf segments was isolated in a manner known per se. Stock solution was prepared from the isolated protein, and the specific radioactivity of the solution was determined by liquid scintillation.

Assay [4] deals with Soybean. Put plainly: Total and protein nitrogen content of soybean (Example 39). The assay is classed as in vivo. The source says: The effects of 1,4-dihydroxyphthalazine and salts thereof exerted on the total nitrogen content and protein nitrogen content of soybean were examined as described in Example 27. The plants were sprayed with the compositions according to the invention at the beginning of the flowering of the apical cluster.

For N--bromoethyl-benzimidazolium bromide, the Chlorophyll content in the assay with Alfalfa was 0.64 mg. In the assay with Maize (200 ppm), this compound returned a Promotion of 9.2% and a Chlorophyll content of 0.71 mg. Besides, in the assay on Bean [1] (200 ppm), the “Stimulation (14CO2 incorporation)” value amounted to 57%. For the same compound, in the assay on maize leaves, the “Fixation of 14CO2” value turned out to be 6.46 μCi/g and the “Fixation of 14CO2, %” value is reported as 13%. Further, in the assay on bean leaves, the “Incorporation of Gly-2-14C” value is recorded as 4.36 μCi/g and the “Incorporation of Gly-2-14C, %” value turned out to be 24%.

As for `CCn1cnc2ccccc21` [N--ethyl-benzimidazolium bromide], in the assay with Alfalfa, the Chlorophyll content turned out to be 0.85 mg and the activation at 200 ppm amounted to 8.9%. The Chlorophyll content with Maize (200 ppm) came out at 0.79 mg. Further, the activation at 200 ppm in the assay with Maize came out at 21.5%. This compound gave an activation at 200 ppm in the assay with Bean [1] of 184%. Moreover, in the assay with maize leaves, the “Fixation of 14CO2” value turned out to be 6.72 μCi/g and the “Fixation of 14CO2, %” value amounted to 18%. In the assay with bean leaves, the “Incorporation of Gly-2-14C” value came to 4.25 μCi/g and the “Incorporation of Gly-2-14C, %” value is 21%.

As for `Oc1nnc(O)c2ccccc12` [1,4-Dihydroxyphthalazine], the Chlorophyll with Soybean [2] (200 ppm, control 3.5) was found to be 4.2 mg; in the assay with Bean [3] (200 ppm, control 4.2), 5.8 mg. In addition, the activation at 200 ppm is 20% in the assay on Soybean [2] (Glycine max, foliar, 96 h, read-out: Promotion); 38% with Bean [3] (foliar, 96 h, read-out: Promotion); 35.3% with soybean leaf segments (Glycine max). Also, the Radioactivity in the assay with soybean leaf segments (200 ppm, control 11.9) worked out at 16.1 mu Ci/100 mg. In addition, in the assay with Soybean [4] (control 1.9), the Protein nitrogen content is reported as 3.8 % of dry substance. For the same compound, the Total nitrogen content in the assay with Soybean [4] (control 2.6) is recorded as 4.6 % of dry substance. The “Protein nitrogen content, increase” value in the assay with Soybean [4] (in vivo) was 100.0%. Besides, in the assay on Soybean [4] (in vivo), the “Total nitrogen content, increase” value is 77.0%.

On to `Cn1cnc2ccccc21` [N--methyl-benzimidazolium bromide], for which, in the assay with Alfalfa, the Chlorophyll content is listed as 0.83 mg and the activation at 200 ppm is 6.4%. In the assay on Maize (200 ppm), this compound gave a Chlorophyll content of 0.80 mg. Moreover, the activation at 200 ppm with Maize amounted to 23%. The activation at 200 ppm in the assay on Bean [1] is 125%. In the assay with maize leaves, the “Fixation of 14CO2” value was 8.12 μCi/g and the “Fixation of 14CO2, %” value came to 42%. Moreover, in the assay with bean leaves, the “Incorporation of Gly-2-14C” value is 4.75 μCi/g and the “Incorporation of Gly-2-14C, %” value is on record as 35%.
